# Test results as given in patent US20210022342A1, “THE USE OF SAFENERS TO IMPROVE RESISTANCE OF RICE CROP TO HERBICIDES” (Adama Agan Ltd., priority 2018, published 2021).
# How the values were obtained:
# Type in all cases: in vivo
# [1] = test system: mutant rice (ML0831265-01493, ATCC deposit PTA-12933, mutation G2096S); experiment: Tank mixes of safeners with propaquizafop or quizalofop: regrowth of mutant rice; conditions: quizalofop 40 g/ha, no safener
# Description: (§1) Seeds of a proprietary ACCase resistant rice variety, i.e. RTA1, was used. RTA1, ML0831265-01493 (ATCC deposit PTA-12933, mutation G2096S) variety rice seeds were supplied by RiceTec. RTA1 rice cultivar contains a single mutation in the ACCase gene that confer ACCase resistance. The mutation makes the enzyme insensitive to quizalofop.
# (§2) Mutant rice seeds were planted in commercial greenhouse soil mix in 10×10×10 cm plastic pots. 250 mL of soil was put into each pot, then the seeds were placed on top of the soil and the seeds were covered with 100-150 mL of soil. Approximately 8-10 seeds were planted per pot. The pots were then watered with 100 mL of a mixture of Miracle Grow and Fertiplus (iron supplement). The pots were placed in the greenhouse (38° C./20° C. day/night, 14 h photoperiod with supplemental light). The average light intensity in the greenhouse was 150 μM/m^2/sec.
# Plants were grown until 10 days after planting and then the pots were transferred to trays and the plants were grown under water. :Plants were treated when they reached the 3-5 leaf stage.
# Safeners were tank mixed with the herbicide in the spray bottle.
# (§3) Four days after treatment, the tops of the plants were cut off so that approximately 2.5 cm of plant from the top of the soil remain. The plants were allowed to regrow for 3 days at which time the amount of regrowth was weighed by measuring the amount of fresh weight of tissue that regrew. Comparing the weight of regrowth of shoots after cutting indicates the level of phytotoxicity the herbicide had on the mutant rice plant and the increased level of resistance of the mutant rice to the herbicide when the herbicide was applied in combination with the safener.
# The safeners were applied in various w/w ratios with the ACCase inhibiting herbicides to the rice plant.
# [2] = test system: ACCase inhibitor resistant rice seeds (ML0831265-01493 (ATCC deposit PTA-12933, mutation G2096S)); experiment: Safener seed treatment with propaquizafop or quizalofop: regrowth of resistant rice; conditions: quizalofop, seeds without safener
# Description: as §1, §2
# Plants were grown until 10 days after planting and then the pots were transferred to trays and the plants were grown under water. :Plants were treated when they reached the 3-5 leaf stage. […]
# as §3
# The safeners were also applied in various w/w ratios of the ACCase inhibiting herbicides to the rice seeds.
# [3] = test system: weedy rice; experiment: Regrowth of weedy rice after quizalofop ethyl; conditions: at the rates tested
# Text: The amount of plant regrowth observed for the ACCase resistant rice is compared to the amount of regrowth observed for the weedy rice. The weedy rice was killed by quizalofop ethyl at the rates tested, so there was no regrowth.
# [4] = test system: mutant rice; experiment: Regrowth of mutant rice under low and high light intensity
# Text: as §3
# [5] = test system: wild type rice (Non-Traited Rice); experiment: Quizalofop dose response with or without isoxadifen, regrowth, wild type rice; conditions: calculated effect of safener alone, quizalofop 5.2 g/ha
# [6] = test system: herbicide resistant rice crop (G2096S substitution, ML0831265-01493); experiment: Quizalofop dose response with or without isoxadifen, regrowth, herbicide resistant rice
# Description: Four days after treatment, the tops of the plants were cut off so that approximately 2.5 cm of plant from the top of the soil remain. The plants were allowed to regrow for 3 days at which time the amount of regrowth was weighed by measuring the amount of fresh weight of tissue that regrew.
# The improvement in regrowth was calculated by subtracting the regrowth from a) wild type rice and wild type rice with isoxadifen; b) herbicide resistant rice; and c) herbicide resistant rice and isoxadifen.
# Calculations were done for each application rate of quizalofop. The efficacy of safener alone and mutation alone on decreasing herbicide effect/increasing herbicide resistance were calculated. The relative fresh weight re-growth is the percentage of activity (for Colby).
# The re-growth data was implemented in curve and the synergistic effect was calculated.
# in which E represents the percentage of regrowth expected for the application of safener on mutant rice crop at the defined doses of herbicide. X is the percentage of regrowth for the application of safener on wildtype rice crop at the defined doses of herbicide. Y is the percentage of regrowth for mutant rice crop at the defined doses of herbicide without safener application. When the percentage of regrowth observed for the application of safener on mutant rice crop at the defined doses of herbicide is greater than expected as calculated using the Colby equation, there is a synergistic effect.
compound,measurement,setting,value
"CCOC(=O)[C@@H](C)Oc1ccc(Oc2cnc3cc(Cl)ccc3n2)cc1 [Quizalofop, quizalofop P-ethyl]",Regrowth (fresh weight mg),[1],70 mg
same,Regrowth (fresh weight mg),[2],107 mg
same,Effect on weedy rice (regrowth),[3],killed
same,inhibition of growth of the mutant rice,"[4]; high light intensity (800-1000 uM/m2/sec), 40 g/ha quizalofop, no safener",no inhibition of growth
same,reduction in growth of the mutant rice,"[4]; high light intensity, 70 g/ha quizalofop, no safener",over 80%
same,Regrowth (mg FW),"[4]; high light intensity, no safener, herbicide 30 g/ha",447 mg FW
same,Regrowth (mg FW),"[4]; high light intensity, no safener, herbicide 40 g/ha",533 mg FW
same,Regrowth (mg FW),"[4]; high light intensity, no safener, herbicide 50 g/ha",220 mg FW
same,Regrowth (mg FW),"[4]; high light intensity, no safener, herbicide 60 g/ha",107 mg FW
same,Regrowth (mg FW),"[4]; high light intensity, no safener, herbicide 70 g/ha",76.7 mg FW
same,Regrowth (mg FW),"[4]; high light intensity, with safener (isoxadifen), herbicide 30 g/ha",630 mg FW
same,Regrowth (mg FW),"[4]; high light intensity, with safener (isoxadifen), herbicide 40 g/ha",533 mg FW
same,Regrowth (mg FW),"[4]; high light intensity, with safener (isoxadifen), herbicide 50 g/ha",603 mg FW
same,Regrowth (mg FW),"[4]; high light intensity, with safener (isoxadifen), herbicide 60 g/ha",427 mg FW
same,Regrowth (mg FW),"[4]; high light intensity, with safener (isoxadifen), herbicide 70 g/ha",540 mg FW
same,reduction in growth of the mutant rice,"[4]; low light intensity (150 uM/m2/sec), 40 g/ha quizalofop, no safener",80%
same,Regrowth (mg FW),"[4]; low light intensity, no safener, herbicide 30 g/ha",30 mg FW
same,Regrowth (mg FW),"[4]; low light intensity, no safener, herbicide 40 g/ha",0 mg FW
same,Regrowth (mg FW),"[4]; low light intensity, no safener, herbicide 50 g/ha",0 mg FW
same,Regrowth (mg FW),"[4]; low light intensity, no safener, herbicide 60 g/ha",0 mg FW
same,Regrowth (mg FW),"[4]; low light intensity, no safener, herbicide 70 g/ha",0 mg FW
same,Regrowth (mg FW),"[4]; low light intensity, with safener (isoxadifen), herbicide 30 g/ha",117 mg FW
same,Regrowth (mg FW),"[4]; low light intensity, with safener (isoxadifen), herbicide 40 g/ha",100 mg FW
same,Regrowth (mg FW),"[4]; low light intensity, with safener (isoxadifen), herbicide 50 g/ha",150 mg FW
same,Regrowth (mg FW),"[4]; low light intensity, with safener (isoxadifen), herbicide 60 g/ha",50 mg FW
same,Regrowth (mg FW),"[4]; low light intensity, with safener (isoxadifen), herbicide 70 g/ha",30 mg FW
same,Efficacy at ED50 of mutant- 5.2 g/ha (%),[5],26%
same,Calculated efficacy base on Colby (%),"[6]; expected for mutant & safener, quizalofop 5.2 g/ha",63%
same,"additive effect of safener and mutation, increase in ED50","[6]; expected, compared to wildtype rice without safener",5.1 fold
same,observed increase in ED50,[6]; herbicide resistant rice with safener compared to wildtype rice without safener,31.4 fold
same,Observed efficacy (%),"[6]; mutant & safener, quizalofop 5.2 g/ha",92%
same,Efficacy at ED50 of mutant- 5.2 g/ha (%),"[6]; mutant alone, quizalofop 5.2 g/ha",50%
same,increase in tolerance to herbicide (ED50) by the mutation,"[6]; mutant rice vs wildtype rice, no safener",2.4 fold
